ChEMBL document CHEMBL3217709, “SAR mining and its application to the design of TRPA1 antagonists” (Medchemcomm, 2012)

Tests used:
Adenosine receptor A2b = target: T1, Adenosine receptor A2b (Homo sapiens, UniProt P29275); assay: Antagonist activity at adenosine A2B receptor (unknown origin)
T1 sequence (P29275 whole entry): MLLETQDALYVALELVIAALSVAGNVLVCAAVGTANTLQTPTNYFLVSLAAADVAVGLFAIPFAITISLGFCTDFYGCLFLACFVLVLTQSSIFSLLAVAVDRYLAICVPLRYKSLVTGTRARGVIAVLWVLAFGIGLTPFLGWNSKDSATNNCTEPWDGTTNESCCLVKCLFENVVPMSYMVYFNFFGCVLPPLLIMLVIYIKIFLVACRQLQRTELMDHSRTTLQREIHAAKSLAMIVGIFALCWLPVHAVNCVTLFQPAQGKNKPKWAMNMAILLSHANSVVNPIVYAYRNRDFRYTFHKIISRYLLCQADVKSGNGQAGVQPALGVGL

[1] = target: 5-hydroxytryptamine receptor 4 (Homo sapiens, UniProt Q13639); assay: Antagonist activity at […] receptor (unknown origin)
Chain of 5-hydroxytryptamine receptor 4 (Q13639 whole entry): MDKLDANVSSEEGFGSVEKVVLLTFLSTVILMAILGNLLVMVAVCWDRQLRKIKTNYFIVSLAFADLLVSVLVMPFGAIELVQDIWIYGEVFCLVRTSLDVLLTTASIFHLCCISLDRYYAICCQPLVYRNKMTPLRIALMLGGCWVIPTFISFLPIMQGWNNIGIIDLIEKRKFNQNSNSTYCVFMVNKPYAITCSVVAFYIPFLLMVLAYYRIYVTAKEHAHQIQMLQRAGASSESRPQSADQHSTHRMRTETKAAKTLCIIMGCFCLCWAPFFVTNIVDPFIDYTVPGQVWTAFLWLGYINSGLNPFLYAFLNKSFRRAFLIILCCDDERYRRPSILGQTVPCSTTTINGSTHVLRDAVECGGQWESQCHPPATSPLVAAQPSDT

[2] = target: Transient receptor potential cation channel subfamily A member 1 (Homo sapiens, UniProt O75762); assay: Antagonist activity at TRPA1 (unknown origin)
Chain of Transient receptor potential cation channel subfamily A member 1 (O75762 whole entry): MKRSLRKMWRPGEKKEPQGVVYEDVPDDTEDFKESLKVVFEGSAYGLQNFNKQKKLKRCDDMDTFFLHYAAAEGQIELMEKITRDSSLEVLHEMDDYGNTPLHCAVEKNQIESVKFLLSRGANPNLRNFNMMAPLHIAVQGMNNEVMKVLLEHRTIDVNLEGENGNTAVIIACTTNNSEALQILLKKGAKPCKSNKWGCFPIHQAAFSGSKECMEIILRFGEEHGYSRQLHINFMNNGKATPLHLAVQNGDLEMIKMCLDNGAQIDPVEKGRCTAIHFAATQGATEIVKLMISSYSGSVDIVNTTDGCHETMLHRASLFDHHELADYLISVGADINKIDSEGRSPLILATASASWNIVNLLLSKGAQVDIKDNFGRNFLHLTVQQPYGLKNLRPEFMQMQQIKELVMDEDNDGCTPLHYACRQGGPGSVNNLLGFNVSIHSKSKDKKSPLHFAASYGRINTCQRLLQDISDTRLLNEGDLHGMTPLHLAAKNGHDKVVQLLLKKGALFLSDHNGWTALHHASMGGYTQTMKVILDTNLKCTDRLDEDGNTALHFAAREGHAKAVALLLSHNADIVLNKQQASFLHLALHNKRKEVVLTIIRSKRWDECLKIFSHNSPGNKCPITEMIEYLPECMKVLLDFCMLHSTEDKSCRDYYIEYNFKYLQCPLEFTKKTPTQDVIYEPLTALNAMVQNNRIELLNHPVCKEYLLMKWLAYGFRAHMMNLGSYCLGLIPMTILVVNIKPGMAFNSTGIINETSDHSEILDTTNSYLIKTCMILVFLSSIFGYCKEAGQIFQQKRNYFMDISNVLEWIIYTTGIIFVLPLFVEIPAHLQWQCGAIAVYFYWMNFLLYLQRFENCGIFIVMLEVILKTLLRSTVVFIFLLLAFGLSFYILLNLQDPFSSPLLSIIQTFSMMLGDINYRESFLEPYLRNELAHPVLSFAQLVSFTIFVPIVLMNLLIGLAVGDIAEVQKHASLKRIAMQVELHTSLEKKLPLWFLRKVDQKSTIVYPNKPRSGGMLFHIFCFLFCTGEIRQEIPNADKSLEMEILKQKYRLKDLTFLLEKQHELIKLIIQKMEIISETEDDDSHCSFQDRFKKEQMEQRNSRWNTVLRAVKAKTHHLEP

Coagulation factor X = Coagulation factor X (Homo sapiens, UniProt P00742); assay: Inhibition of factor-10a (unknown origin)
Chain of Coagulation factor X (P00742 41-179 limits assumed): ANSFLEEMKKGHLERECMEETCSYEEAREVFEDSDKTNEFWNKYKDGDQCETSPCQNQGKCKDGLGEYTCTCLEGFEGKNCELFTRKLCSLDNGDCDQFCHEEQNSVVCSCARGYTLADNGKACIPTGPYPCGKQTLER
Chain of Coagulation factor X (P00742 235-488 limits assumed): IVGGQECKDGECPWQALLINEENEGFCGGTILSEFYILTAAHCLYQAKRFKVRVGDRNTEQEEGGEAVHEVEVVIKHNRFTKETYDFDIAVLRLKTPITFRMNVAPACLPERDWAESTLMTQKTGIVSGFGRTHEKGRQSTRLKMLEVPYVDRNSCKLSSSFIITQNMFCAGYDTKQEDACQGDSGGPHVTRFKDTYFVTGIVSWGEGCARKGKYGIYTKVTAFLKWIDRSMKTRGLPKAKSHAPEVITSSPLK

SMILES: COc1cc(N)c(Cl)cc1C(=O)OCCN1CCN(c2ccccc2F)CC1
- IC50 (Adenosine receptor A2b): 645 nM
- IC50 [1]: 17 nM

SMILES: Cc1c(=O)n(Cc2ccccc2)c(=O)n2cc(C(=O)N3CCC(Oc4ccccc4F)CC3)sc12
- IC50 [2]: 200 nM

SMILES: COc1cc(N)c(Cl)cc1C(=O)OCCN1CCN(c2cccc(Cl)c2)CC1
- IC50 (Adenosine receptor A2b): 2080 nM
- IC50 [1]: 162 nM

SMILES: Cc1c(=O)n(Cc2ccccc2)c(=O)n2cc(C(=O)NCc3ccc(F)cc3)sc12
- IC50 [2]: 2230 nM

SMILES: Cc1c(=O)n(Cc2ccccc2)c(=O)n2cc(C(=O)N3CCC(c4ccccc4F)CC3)sc12
- IC50 [2]: 400 nM

SMILES: Cc1c(=O)n(Cc2ccccc2)c(=O)n2cc(C(=O)NCc3ccccc3)sc12
- IC50 [2]: 1880 nM

SMILES: COc1cc(N)c(Cl)cc1C(=O)OCCN1CCN(c2ccccc2Cl)CC1
- IC50 (Adenosine receptor A2b): 5830 nM
- IC50 [1]: 296 nM

SMILES: Cc1c(=O)n(Cc2ccccc2)c(=O)n2cc(C(=O)NCc3ccc(Cl)cc3)sc12
- IC50 [2]: 2230 nM

SMILES: COc1cccc(N2CCN(CCOC(=O)c3cc(Cl)c(N)cc3OC)CC2)c1
- IC50 (Adenosine receptor A2b): 50 nM
- IC50 [1]: 3 nM

SMILES: Cc1c(=O)n(Cc2ccccc2)c(=O)n2cc(C(=O)NCc3ccc4nsnc4c3)sc12
- IC50 [2]: 1460 nM

SMILES: Cc1c(=O)n(Cc2ccccc2)c(=O)n2cc(C(=O)NCc3ccc4[nH]ccc4c3)sc12
- IC50 [2]: 680 nM

SMILES: Cc1c(=O)n(Cc2ccccc2)c(=O)n2cc(C(=O)NCc3ccncc3)sc12
- IC50 [2]: 1170 nM

SMILES: COc1cc(N)c(Cl)cc1C(=O)OCCN1CCN(c2ccc(Cl)cc2)CC1
- IC50 (Adenosine receptor A2b): 3660 nM
- IC50 [1]: 715 nM

SMILES: Cc1c(=O)n(Cc2ccccc2)c(=O)n2cc(C(=O)NCc3cccnc3)sc12
- IC50 [2]: 1570 nM

SMILES: COc1cc(CNC(=O)c2cn3c(=O)n(Cc4ccccc4)c(=O)c(C)c3s2)ccn1
- IC50 [2]: 1740 nM

SMILES: Cc1ccc(CNC(=O)c2cn3c(=O)n(Cc4ccccc4)c(=O)c(C)c3s2)cc1
- IC50 [2]: 1370 nM

SMILES: COc1cc(N)c(Cl)cc1C(=O)OCCN1CCN(c2ccccc2-c2cnccn2)CC1
- IC50 [1]: 1.4 nM

SMILES: Cc1c(=O)n(Cc2ccccc2)c(=O)n2cc(C(=O)NCc3ccccn3)sc12
- IC50 [2]: 3490 nM

SMILES: COc1ccc(N2CCN(CCOC(=O)c3cc(Cl)c(N)cc3OC)CC2)cc1
- IC50 (Adenosine receptor A2b): 250 nM
- IC50 [1]: 18 nM

SMILES: Cc1c(=O)n(Cc2ccccc2)c(=O)n2cc(C(=O)N3CCC(Oc4cccc(Cl)c4)CC3)sc12
- IC50 [2]: 200 nM

SMILES: Cc1cc(C(=O)Nc2ccc(-c3ccccc3S(C)(=O)=O)cc2)n(-c2cccc(C(=N)N)c2)n1
- IC50 (Coagulation factor X): 0.008 nM

SMILES: Cc1c(=O)n(Cc2ccccc2)c(=O)n2cc(C(=O)N3CC[C@@H](Oc4ccccc4C(F)(F)F)C3)sc12
- IC50 [2]: 100 nM

SMILES: Cc1cc(C(=O)Nc2ccc(-c3ccccc3C(F)(F)F)cc2)n(-c2cccc(C(=N)N)c2)n1
- IC50 (Coagulation factor X): 0.04 nM

SMILES: Cc1c(=O)n(Cc2ccccc2)c(=O)n2cc(C(=O)N3CC[C@H](Oc4ccccc4C(F)(F)F)C3)sc12
- IC50 [2]: 150 nM

SMILES: COc1cc(N)c(Cl)cc1C(=O)OCCN1CCN(c2ccccc2OC)CC1
- IC50 (Adenosine receptor A2b): 127 nM
- IC50 [1]: 64 nM
